Data on 20 compounds can be found in patent US12662491B2 (Redona Therapeutics, Inc., priority 2020, dated 2026).

The assay addresses T1, Zcchc11 enzyme (Homo sapiens, UniProt Q5TAX3).
T1 construct: made in house; host or cells: HEK293 cells (Zcchc11); E. coli Rosetta II (LIN28A)
T1 sequence (Q5TAX3 212-1420): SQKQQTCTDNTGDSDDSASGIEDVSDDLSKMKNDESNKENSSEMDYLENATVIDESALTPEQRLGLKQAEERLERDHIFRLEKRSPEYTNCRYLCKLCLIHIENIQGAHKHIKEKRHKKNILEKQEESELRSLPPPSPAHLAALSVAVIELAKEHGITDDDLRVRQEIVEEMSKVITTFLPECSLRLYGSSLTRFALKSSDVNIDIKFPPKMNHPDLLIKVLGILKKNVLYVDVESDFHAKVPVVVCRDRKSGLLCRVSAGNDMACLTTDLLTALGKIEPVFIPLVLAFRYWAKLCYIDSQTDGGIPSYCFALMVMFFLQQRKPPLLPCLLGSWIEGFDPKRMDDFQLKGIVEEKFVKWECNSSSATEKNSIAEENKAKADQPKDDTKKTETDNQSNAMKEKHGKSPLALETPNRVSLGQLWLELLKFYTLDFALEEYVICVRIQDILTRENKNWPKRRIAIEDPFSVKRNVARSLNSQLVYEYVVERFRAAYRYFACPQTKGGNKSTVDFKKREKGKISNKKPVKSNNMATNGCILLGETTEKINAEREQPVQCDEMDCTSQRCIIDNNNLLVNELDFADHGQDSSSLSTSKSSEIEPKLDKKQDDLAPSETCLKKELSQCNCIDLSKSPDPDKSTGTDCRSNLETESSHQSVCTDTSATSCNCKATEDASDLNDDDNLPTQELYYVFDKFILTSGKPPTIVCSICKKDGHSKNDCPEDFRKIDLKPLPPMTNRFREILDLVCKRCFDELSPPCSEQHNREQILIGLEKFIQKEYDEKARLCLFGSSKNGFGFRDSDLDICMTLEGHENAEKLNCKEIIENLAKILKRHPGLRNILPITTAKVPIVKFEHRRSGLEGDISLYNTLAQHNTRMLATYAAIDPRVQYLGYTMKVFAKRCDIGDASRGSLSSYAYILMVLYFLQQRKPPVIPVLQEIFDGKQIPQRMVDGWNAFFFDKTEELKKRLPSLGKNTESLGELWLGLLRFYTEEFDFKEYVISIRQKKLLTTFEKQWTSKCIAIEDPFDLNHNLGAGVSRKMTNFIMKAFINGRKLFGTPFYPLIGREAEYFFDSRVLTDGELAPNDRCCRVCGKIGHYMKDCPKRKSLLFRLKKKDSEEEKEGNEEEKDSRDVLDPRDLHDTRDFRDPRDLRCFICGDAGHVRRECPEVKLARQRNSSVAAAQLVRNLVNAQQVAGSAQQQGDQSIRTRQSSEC
Description: TUTase assay (Zcchc11 assay, Lin28a-dependent polyuridylation of pre-let-7). Type of assay: biochemical. The conditions noted are these: Lin28a-dependent Zcchc11 (Z11) TUTase assay; read-out: Potency Lin28a-dep Z11 IC50. Put shortly: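 Readout: time-dependent quench of 5′-fluorescein pre-let-7 (2 nM) as 3′-rhodamine A20 probe anneals to poly(U) tails. Enzyme 0.2 nM Zcchc11 (res. 212-1420), LIN28A 10 nM, UTP 5 uM; pH 7.3 HEPES, 150 mM KCl, 5 mM MgCl2, RT. 4-parameter IC50; 100% = DMSO, 0% = no UTP.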

One may read the IC50 as the point on the concentration scale where inhibition reaches its midpoint. For `COCCOc1ccc(-n2cc(C(=O)O)c(=O)c3cc(Cl)c(N4CCC[C@@H]4COc4ncccc4Cl)cc32)cn1` [Example 415, (R)-6-chloro-7-(2-(((3-chloropyridin-2-yl)oxy)methyl)pyrrolidin-1-yl)-1-(6-(2-methoxy-ethoxy)pyridin-3-yl)-4-oxo-1,4-dihydroquinoline-3-carboxylic acid], the IC50 is at most 1000 nM.

Regarding `CN(C)CCNc1ccc(-n2cc(C(=O)O)c(=O)c3cc(Cl)c(N4CCC[C@@H]4COc4ncccc4Cl)cc32)cn1` [Example 416, (R)-6-chloro-7-(2-(((3-chloropyridin-2-yl)oxy)methyl)pyrrolidin-1-yl)-1-(6-((2-(dimethylamino)ethyl)amino)pyridin-3-yl)-4-oxo-1,4-dihydroquinoline-3-carboxylic acid], the IC50 was at most 1000 nM.

For the compound `CNc1ccc(-n2cc(C(=O)O)c(=O)c3cc(Cl)c(N4CCC[C@@H]4COc4ncccc4Cl)cc32)cn1` [Example 417, (R)-6-chloro-7-(2-(((3-chloropyridin-2-yl)oxy)methyl)pyrrolidin-1-yl)-1-(6-(methylamino)pyridin-3-yl)-4-oxo-1,4-dihydroquinoline-3-carboxylic acid], the IC50 was at most 1000 nM.

On to `CN(C)CCOc1ccc(-n2cc(C(=O)O)c(=O)c3cc(Cl)c(N4CCC[C@@H]4COc4ncccc4Cl)cc32)cn1` [Example 418, (R)-6-chloro-7-(2-(((3-chloropyridin-2-yl)oxy)methyl)pyrrolidin-1-yl)-1-(6-(2-(dimethylamino)ethoxy)pyridin-3-yl)-4-oxo-1,4-dihydroquinoline-3-carboxylic acid], for which the IC50 is at most 1000 nM.

Regarding `COCCOc1cnc(-n2cc(C(=O)O)c(=O)c3cc(Cl)c(N4CCC[C@@H]4COc4ncccc4Cl)cc32)cn1` [Example 419, (R)-6-chloro-7-(2-(((3-chloropyridin-2-yl)oxy)methyl)pyrrolidin-1-yl)-1-(5-(2-methoxy-ethoxy)pyrazin-2-yl)-4-oxo-1,4-dihydroquinoline-3-carboxylic acid], the IC50 is at most 1000 nM.

As to `COCCN(C)c1ccc(-n2cc(C(=O)O)c(=O)c3cc(Cl)c(N4CCC[C@@H]4COc4ncccc4Cl)cc32)cn1` [Example 420, (R)-6-chloro-7-(2-(((3-chloropyridin-2-yl)oxy)methyl)pyrrolidin-1-yl)-1-(6-((2-methoxy-ethyl)(methyl)amino)pyridin-3-yl)-4-oxo-1,4-dihydroquinoline-3-carboxylic acid], the IC50 is at most 1000 nM.

For the compound `CN(C)c1ccc(-n2cc(C(=O)O)c(=O)c3cc(Cl)c(N4CCC[C@@H]4COc4ncccc4Cl)cc32)cn1` [Example 421, (R)-6-chloro-7-(2-(((3-chloropyridin-2-yl)oxy)methyl)pyrrolidin-1-yl)-1-(6-(dimethyl-amino)pyridin-3-yl)-4-oxo-1,4-dihydroquinoline-3-carboxylic acid], the IC50 is at most 1000 nM.

`O=C(O)c1cn(-c2ccc(N3CCC3)nc2)c2cc(N3CCC[C@@H]3COc3ncccc3Cl)c(Cl)cc2c1=O` [Example 422, (R)-1-(6-(azetidin-1-yl)pyridin-3-yl)-6-chloro-7-(2-(((3-chloropyridin-2-yl)oxy)methyl)pyrrolidin-1-yl)-4-oxo-1,4-dihydroquinoline-3-carboxylic acid]: the IC50 is at most 1000 nM.

In the case of `O=C(O)c1cn(-c2ccc(N3CC(O)C3)nc2)c2cc(N3CCC[C@@H]3COc3ncccc3Cl)c(Cl)cc2c1=O` [Example 423, (R)-6-chloro-7-(2-(((3-chloropyridin-2-yl)oxy)methyl)pyrrolidin-1-yl)-1-(6-(3-hydroxy-azetidin-1-yl)pyridin-3-yl)-4-oxo-1,4-dihydroquinoline-3-carboxylic acid], the IC50 is at most 1000 nM.

As for `CN(C)c1cnc(-n2cc(C(=O)O)c(=O)c3cc(Cl)c(N4CCC[C@@H]4COc4ncccc4Cl)cc32)cn1` [Example 424, (R)-6-chloro-7-(2-(((3-chloropyridin-2-yl)oxy)methyl)pyrrolidin-1-yl)-1-(5-(dimethylamino)pyrazin-2-yl)-4-oxo-1,4-dihydroquinoline-3-carboxylic acid], the IC50 was at most 1000 nM.

With `O=C(O)c1cn(-c2cnccn2)c2cc(N3CCC[C@@H]3COc3ncccc3Cl)c(Cl)cc2c1=O` [Example 425, (R)-6-chloro-7-(2-(((3-chloropyridin-2-yl)oxy)methyl)pyrrolidin-1-yl)-4-oxo-1-(pyrazin-2-yl)-1,4-dihydroquinoline-3-carboxylic acid], the IC50 is at most 1000 nM.

For `CC(=O)Nc1ccc(-n2cc(C(=O)O)c(=O)c3cc(Cl)c(N4CCC[C@@H]4COc4ncccc4Cl)cc32)cn1` [Example 426, (R)-1-(6-acetamidopyridin-3-yl)-6-chloro-7-(2-(((3-chloro-pyridin-2-yl)oxy)methyl)pyrrolidin-1-yl)-4-oxo-1,4-dihydroquinoline-3-carboxylic acid], the IC50 was at most 1000 nM.

For `CS(=O)(=O)Nc1ccc(-n2cc(C(=O)O)c(=O)c3cc(Cl)c(N4CCC[C@@H]4COc4ncccc4Cl)cc32)cc1` [Example 427, (R)-6-chloro-7-(2-(((3-chloropyridin-2-yl)oxy)methyl)pyrrolidin-1-yl)-1-(4-(methyl-sulfonamido)phenyl)-4-oxo-1,4-dihydroquinoline-3-carboxylic acid], the IC50 is at most 1000 nM.

Take `O=C(O)c1cn(-c2ccnc(O)c2)c2cc(N3CCC[C@@H]3COc3ncccc3Cl)c(Cl)cc2c1=O` [Example 428, (R)-6-chloro-7-(2-(((3-chloropyridin-2-yl)oxy)methyl)pyrrolidin-1-yl)-1-(2-hydroxypyridin-4-yl)-4-oxo-1,4-dihydroquinoline-3-carboxylic acid]: the IC50 is at most 1000 nM.

Turning to `O=C(O)c1cn(-c2ccc(CO)nc2)c2cc(N3CCC[C@@H]3COc3ncccc3Cl)c(Cl)cc2c1=O` [Example 429, (R)-6-chloro-7-(2-(((3-chloropyridin-2-yl)oxy)methyl)pyrrolidin-1-yl)-1-(6-(hydroxymethyl)pyridin-3-yl)-4-oxo-1,4-dihydroquinoline-3-carboxylic acid], the IC50 was at most 1000 nM.

In the case of `O=C(O)c1cn(-c2ccc(N3CCCCC3)nc2)c2cc(N3CCC[C@@H]3COc3ncccc3Cl)c(Cl)cc2c1=O` [Example 430, (R)-6-chloro-7-(2-(((3-chloropyridin-2-yl)oxy)methyl)pyrrolidin-1-yl)-4-oxo-1-(6-(piperidin-1-yl)pyridin-3-yl)-1,4-dihydroquinoline-3-carboxylic acid], the IC50 is at most 1000 nM.

As to `O=C(O)c1cn(-c2ccc(N3CCOCC3)nc2)c2cc(N3CCC[C@@H]3COc3ncccc3Cl)c(Cl)cc2c1=O` [Example 431, (R)-6-chloro-7-(2-(((3-chloropyridin-2-yl)oxy)methyl)pyrrolidin-1-yl)-1-(6-morpholino-pyridin-3-yl)-4-oxo-1,4-dihydroquinoline-3-carboxylic acid], the IC50 was at most 1000 nM.

In the case of `O=C(O)c1cn(-c2ccc(N3CCCC3)nc2)c2cc(N3CCC[C@@H]3COc3ncccc3Cl)c(Cl)cc2c1=O` [Example 432, (R)-6-chloro-7-(2-(((3-chloropyridin-2-yl)oxy)methyl)pyrrolidin-1-yl)-4-oxo-1-(6-(pyrrolidin-1-yl)pyridin-3-yl)-1,4-dihydroquinoline-3-carboxylic acid], the IC50 was at most 1000 nM.

With `O=C(O)c1cn(-c2nncs2)c2cc(N3CCC[C@@H]3COc3ccccn3)c(F)cc2c1=O` [Example 433, (R)-6-fluoro-4-oxo-7-(2-((pyridin-2-yloxy)methyl)pyrrolidin-1-yl)-1-(1,3,4-thiadiazol-2-yl)-1,4-dihydroquinoline-3-carboxylic acid], the 50% inhibitory concentration (IC50) was in the range of 1000 to 10000 nM.

Turning to `O=C(O)c1cn(-c2cn[nH]c2)c2cc(N3CCC[C@@H]3COc3ncccc3Cl)c(Cl)cc2c1=O` [Example 434, (R)-6-chloro-7-(2-(((3-chloropyridin-2-yl)oxy)methyl)pyrrolidin-1-yl)-4-oxo-1-(1H-pyrazol-4-yl)-1,4-dihydroquinoline-3-carboxylic acid], the IC50 lay in the range of 1000 to 10000 nM.
